Measurements from patent EP0238207B1, “Bactericidal mixtures” (PITMAN-MOORE INC., priority 1986, dated 1987).
Like-named read-outs stand apart in the source and are kept apart here.

Columns and labels:
[1] = system: Salmonella dublin strain M738; experiment: Synergy in experimental bovine salmonellosis, five repeated daily subcutaneous injections (Example 2); assay type: in vivo, calves; conditions: for Mortality: s.c., five days
Source text: In planning the investigation of possible synergy between Compound A and sulphadimidine (SDD), it was decided that seven treatment groups (including an untreated control group) of eight calves each would be necessary, but because of the impossibility of housing this required total number of calves (56) at one time in the available isolation accommodation, it was planned to carry out two duplicate experiments each using seven groups of four calves.
• 1) "Sodium Sulfamethazine Injectable Solution 25%" - Cyanamid. This commercial preparation contained 250 mg/ml of sodium SDD, equivalent to 232 mg/ml of SDD. • 2) Aqueous solution of SDD, 100 mg/ml in dilute NaOH. • 3) Aqueous solution of Compound A, 20 mg/ml as the hydrochloride.
On the day of infection, Day 0, each calf received an oral dose of 50 ml of a log-phase culture of Salmonella dublin strain M738 diluted to contain an estimated 10¹⁰ organisms, using the published technique (White et al 1981a). A viable count on the inoculum was carried out.
On the basis of Day 0 (am) bodyweights the calves were randomly allocated into 7 groups of 4.
Using Day 0 bodyweights, 3 calves of identical weights to the day 0 weights of the 3 eliminated calves were allocated to the appropriate groups, and the remaining […] were randomly allocated to the 7 groups as above.
Administration of compounds in all cases was by subcutaneous injection, using different sides of the animal for Compound A and SDD when both were given in groups 4, 5 and 6. The first of five consecutive daily injections was given 43 hours after […], the other following at 24 hour intervals.

a range of organisms = conditions: against a range of organisms; cited from earlier work
S. dublin strain M738 = experiment: MIC by surface growth inhibition method, checkerboard two-fold dilution series; assay type: cell-based; conditions: for MIC: Salmonella enterica, M738
Experimental: Estimation of the minimum inhibitory concentrations (MICs) of Compound A and SDD, alone and together, was carried out by a surface growth inhibition method, using a "checkerboard" two-fold dilution series, with Compound A and SDD ranges of […] and 256 to 1µg/ml respectively. Thus, including the control plates, a total of 100 different combinations were used. Dilutions were made in Oxoid Isosensitest Agar with plate inoculation by an automatic inoculator using a 2µl inoculum yielding semi-confluent growth over a disc approx. 7 mm diameter. End points were judged to be the lowest concentrations completely or almost completely inhibiting growth.

S.dublin = experiment: Treatment of acute salmonellosis in calves, compound administered alone; assay type: in vivo; conditions: administered alone at dosages of up to 6 mg/kg
[2] = Serum concentrations in infected calves (Bratton-Marshall method for sulphonamide, bio-assay for Compound A); assay type: in vivo
Experimental: Blood samples for assay of sulphonamide by the Bratton-Marshall method and for Compound A by bio-assay were collected before and 24 hours after the first injection, 2, 5 and 24 hours after the second injection, 24 hours after the fourth injection and 2, 5 and 24 hours after the fifth injection.

[3] = cattle older than about six weeks; cited from earlier work

Structure (SMILES): Cc1cc(Cc2cnc(N)nc2N)c2cccnc2c1N(C)C [Compound A, 2,4-diamino-5-(8-dimethylamino-7-methyl-5-quinolylmethyl) pyrimidine]
- Mortality ([1]; Group 3: Compound A alone 6 mg/kg daily): 5 out of 8
- therapeutic effect ([1]; Group 3: Compound A alone at 6 mg/kg daily): ineffective
- in vitro antibacterial activity (a range of organisms): good
- growth at 24 hours (S. dublin strain M738; Compound A 0.002 µg/ml, SDD 0 µg/ml): +
- growth at 24 hours (S. dublin strain M738; Compound A 0.004 µg/ml, SDD 0 µg/ml): +
- growth at 24 hours (S. dublin strain M738; Compound A 0.008 µg/ml, SDD 0 µg/ml): +
- growth at 24 hours (S. dublin strain M738; Compound A 0.016 µg/ml, SDD 0 µg/ml): +
- growth at 24 hours (S. dublin strain M738; Compound A 0.032 µg/ml, SDD 0 µg/ml): +
- growth at 24 hours (S. dublin strain M738; Compound A 0.064 µg/ml, SDD 0 µg/ml): +
- growth at 24 hours (S. dublin strain M738; Compound A 0.128 µg/ml, SDD 0 µg/ml): +
- growth at 24 hours (S. dublin strain M738; Compound A 0.256 µg/ml, SDD 0 µg/ml): -
- growth at 24 hours (S. dublin strain M738; Compound A 0.512 µg/ml, SDD 0 µg/ml): -
- MIC (S. dublin strain M738; each substance alone, Oxoid Isosensitest Agar, read-out: MIC): 0.256 µg/mL
- effect in treating acute salmonellosis (S.dublin) in calves (S.dublin): ineffective
- serum concentrations of Compound A ([2]; Group 3: Compound A alone at 6 mg/kg daily s.c.): > 0.256 µg/mL

Structure (SMILES): Cc1cc(C)nc(NS(=O)(=O)c2ccc(N)cc2)n1 [SDD, sulphadimidine]
- therapeutic effect ([1]; Group 1: SDD alone 200/100 mg/kg daily): therapeutically ineffective
- clinical recovery of surviving calves ([1]; Group 1: SDD alone 200/100 mg/kg, three surviving calves): very slow clinical recovery
- bodyweight of surviving calves ([1]; Group 1: SDD alone 200/100 mg/kg, three surviving calves, Day 21 versus Day 0): none had regained its Day 0 bodyweight by Day 21
- Mortality ([1]; Group 1: SDD alone, first dose 200 mg/kg, subsequent doses 100 mg/kg daily): 5 out of 8
- Mortality ([1]; Group 2: SDD alone 30 mg/kg daily): 5 out of 8
- growth at 24 hours (S. dublin strain M738; Compound A 0 µg/ml, SDD 1 µg/ml): +
- growth at 24 hours (S. dublin strain M738; Compound A 0 µg/ml, SDD 2 µg/ml): +
- growth at 24 hours (S. dublin strain M738; Compound A 0 µg/ml, SDD 4 µg/ml): +
- growth at 24 hours (S. dublin strain M738; Compound A 0 µg/ml, SDD 8 µg/ml): +
- growth at 24 hours (S. dublin strain M738; Compound A 0 µg/ml, SDD 16 µg/ml): +
- growth at 24 hours (S. dublin strain M738; Compound A 0 µg/ml, SDD 32 µg/ml): +
- growth at 24 hours (S. dublin strain M738; Compound A 0 µg/ml, SDD 64 µg/ml): +
- growth at 24 hours (S. dublin strain M738; Compound A 0 µg/ml, SDD 128 µg/ml): -
- growth at 24 hours (S. dublin strain M738; Compound A 0 µg/ml, SDD 256 µg/ml): -
- MIC (S. dublin strain M738): 128 µg/mL
- serum concentrations of SDD ([2]; Group 1: SDD alone 200/100 mg/kg daily s.c., throughout the dosing period): > 128 µg/mL

Structure (SMILES): COc1cc(Cc2cnc(N)nc2N)cc(OC)c1OC [trimethoprim]
- oral bioavailability [3]: very poor
